Laboratory results: US20170210723A1, “MOLECULES HAVING PESTICIDAL UTILITY, AND INTERMEDIATES, COMPOSITIONS, AND PROCESSES, RELATED THERETO” (priority 2016, published 2017)

How the values were obtained:
Type in all cases: in vivo
[1] = test system: Cabbage Looper (Trichoplusia ni); experiment: Bioassays on CL, 128-well diet tray assay; conditions: 50 μg/cm^2 on artificial diet, second instar larvae, five to seven days; for mortality at 50 µg/cm2: Trichoplusia ni, 168 h, read-out: CL % Control (or Mortality) rating
Method in brief: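 Test molecule at 50 μg/cm^2 applied to the artificial diet surface (acetone-water) and dried; one to five second-instar T. ni larvae per well, eight wells per treatment, held at 25° C., 14:10 light-dark for five to seven days. Percent mortality averaged over wells.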

[2] = test system: Yellow Fever Mosquito (Aedes aegypti); experiment: Bioassays on Yellow Fever Mosquito larvae, 96-well plate; conditions: from 4000 ppm DMSO master plate, about 1 day-old larvae, 3 days
Method in brief: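 Aedes aegypti larvae about 1 day old, in water with liver powder, exposed in 96-well plates to compounds from a 4000 ppm DMSO master solution diluted in 90:10 water:acetone. Plates covered and held at room temperature for 3 days, then each well scored for mortality; 6 replicate plates.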

[3] = test system: Beet Armyworm (Spodoptera exigua); experiment: Bioassays on BAW, 128-well diet tray assay; conditions: 50 μg/cm^2 on artificial diet, second instar larvae, five to seven days; for mortality at 50 µg/cm2: Spodoptera exigua, 168 h, read-out: BAW % Control (or Mortality) rating

C[C@H](CSCC(F)(F)F)NC(=O)c1ccc(/C=C/C(c2cc(Cl)c(Cl)c(Cl)c2)C(F)(F)F)cc1Cl (stereo partly drawn) [F67, 2-Chloro-4-((E)-4,4,4-trifluoro-3-(3,4,5-trichlorophenyl)but-1-en-1-yl)-N—((R)-1-((2,2,2-trifluoroethyl)thio)propan-2-yl)benzamide]
mortality at 50 µg/cm2 [1]: 50 to 100% | YFM % Control (or Mortality) rating [2]: A (80-100) | mortality at 50 µg/cm2 [3]: 50 to 100%

C[C@H](CSCC(F)(F)F)NC(=O)c1ccc(/C=C/C(c2cc(Br)c(Cl)c(Br)c2)C(F)(F)F)cc1C(F)(F)F (stereo partly drawn) [F41, 4-((E)-3-(3,5-Dibromo-4-chlorophenyl)-4,4,4-trifluorobut-1-en-1-yl)-N—((R)-1-((2,2,2-trifluoroethyl)thio)propan-2-yl)-2-(trifluoromethyl)benzamide]
mortality at 50 µg/cm2 [1]: 50 to 100% | YFM % Control (or Mortality) rating [2]: A (80-100) | mortality at 50 µg/cm2 [3]: 50 to 100%

CC(C)SC[C@@H](C)NC(=O)c1ccc(/C=C/C(c2cc(Cl)c(Cl)c(Cl)c2)C(F)(F)F)cc1C(F)(F)F (stereo partly drawn) [F86, N-((R)-1-(Isopropylthio)propan-2-yl)-4-((E)-4,4,4-trifluoro-3-(3,4,5-trichlorophenyl)but-1-en-1-yl)-2-(trifluoromethyl) benzamide]
mortality at 50 µg/cm2 [1]: 50 to 100% | YFM % Control (or Mortality) rating [2]: A (80-100) | mortality at 50 µg/cm2 [3]: 50 to 100%

C[C@H](C[S+]([O-])CC(F)(F)F)NC(=O)c1ccc(/C=C/C(c2cc(Cl)c(Cl)c(Cl)c2)C(F)(F)F)cc1Cl (stereo partly drawn) [F50, 2-Chloro-4-((E)-4,4,4-trifluoro-3-(3,4,5-trichlorophenyl)but-1-en-1-yl)-N-((2R)-1-((2,2,2-trifluoroethyl)sulfinyl)propan-2-yl)benzamide]
mortality at 50 µg/cm2 [1]: 50 to 100% | YFM % Control (or Mortality) rating [2]: A (80-100) | mortality at 50 µg/cm2 [3]: 50 to 100%

CCSC(CNC(=O)c1ccc(/C=C/C(c2cc(Cl)c(Cl)c(Cl)c2)C(F)(F)F)cc1C(F)(F)F)SCC (stereo not drawn) [F113, (E)-N-(2,2-Bis(ethylthio)ethyl)-4-(4,4,4-trifluoro-3-(3,4,5-trichlorophenyl)but-1-en-1-yl)-2-(trifluoromethyl)benzamide]
mortality at 50 µg/cm2 [1]: 50 to 100% | YFM % Control (or Mortality) rating [2]: A (80-100) | mortality at 50 µg/cm2 [3]: 50 to 100%

Cc1cc(/C=C/C(c2cc(Cl)c(Cl)c(Cl)c2)C(F)(F)F)cc(F)c1C(=O)N[C@H](C)CSCC(F)(F)F (stereo partly drawn) [F97, 2-Fluoro-6-methyl-4-((E)-4,4,4-trifluoro-3-(3,4,5-trichlorophenyl)but-1-en-1-yl)-N—((R)-1-((2,2,2-trifluoroethyl)thio)propan-2-yl)benzamide]
mortality at 50 µg/cm2 [1]: 50 to 100% | YFM % Control (or Mortality) rating [2]: A (80-100) | mortality at 50 µg/cm2 [3]: 50 to 100%

C[C@H](C[S+]([O-])CC(F)(F)F)NC(=O)c1ccc(/C=C/C(c2cc(Cl)cc(Cl)c2)C(F)(F)F)cc1C(F)(F)F (stereo partly drawn) [F90, 4-((E)-3-(3,5-Dichlorophenyl)-4,4,4-trifluorobut-1-en-1-yl)-N-((2R)-1-((2,2,2-trifluoroethyl)sulfinyl)propan-2-yl)-2-(trifluoromethyl)benzamide]
mortality at 50 µg/cm2 [1]: 50 to 100% | YFM % Control (or Mortality) rating [2]: A (80-100) | mortality at 50 µg/cm2 [3]: 50 to 100%

O=C(NC1(CS(=O)(=O)CC(F)(F)F)CC1)c1ccc(/C=C/C(c2cc(Cl)c(Cl)c(Cl)c2)C(F)(F)F)cc1C(F)(F)F (stereo not drawn) [F112, (E)-4-(4,4,4-Trifluoro-3-(3,4,5-trichlorophenyl)but-1-en-1-yl)-N-(1-(((2,2,2-trifluoroethyl)sulfonyl)methyl)cyclopropyl)-2-(trifluoromethyl)benzamide]
mortality at 50 µg/cm2 [1]: 50 to 100% | YFM % Control (or Mortality) rating [2]: A (80-100) | mortality at 50 µg/cm2 [3]: 50 to 100%

C[C@H](C[S+]([O-])CC(F)(F)F)NC(=O)c1ccc(/C=C/C(c2cc(Br)cc(Br)c2)C(F)(F)F)cc1C(F)(F)F (stereo partly drawn) [F60, 4-((E)-3-(3,5-Dibromophenyl)-4,4,4-trifluorobut-1-en-1-yl)-N-((2R)-1-((2,2,2-trifluoroethyl)sulfinyl)propan-2-yl)-2-(trifluoromethyl)benzamide]
mortality at 50 µg/cm2 [1]: 50 to 100% | YFM % Control (or Mortality) rating [2]: A (80-100) | mortality at 50 µg/cm2 [3]: 50 to 100%

Cc1cc(/C=C/C(c2cc(Cl)cc(Cl)c2)C(F)(F)F)ccc1C(=O)N[C@H](C)CS(=O)(=O)CC(F)(F)F (stereo partly drawn) [F92, 4-((E)-3-(3,5-Dichlorophenyl)-4,4,4-trifluorobut-1-en-1-yl)-2-methyl-N—((R)-1-((2,2,2-trifluoroethyl)sulfonyl)propan-2-yl)benzamide]
mortality at 50 µg/cm2 [1]: 50 to 100% | YFM % Control (or Mortality) rating [2]: A (80-100) | mortality at 50 µg/cm2 [3]: 50 to 100%

Cc1cc(/C=C/C(c2cc(Cl)c(Cl)c(Cl)c2)C(F)(F)F)ccc1C(=O)N[C@H](C)CSCC(F)(F)F (stereo partly drawn) [F51, 2-Methyl-4-((E)-4,4,4-trifluoro-3-(3,4,5-trichlorophenyl)but-1-en-1-yl)-N—((R)-1-((2,2,2-trifluoroethyl)thio)propan-2-yl)benzamide]
mortality at 50 µg/cm2 [1]: 50 to 100% | YFM % Control (or Mortality) rating [2]: A (80-100) | mortality at 50 µg/cm2 [3]: 50 to 100%

C[C@H](CCSCC(F)(F)F)NC(=O)c1ccc(/C=C/C(c2cc(Cl)c(Cl)c(Cl)c2)C(F)(F)F)cc1C(F)(F)F (stereo partly drawn) [F96, 4-((E)-4,4,4-Trifluoro-3-(3,4,5-trichlorophenyl)but-1-en-1-yl)-N—((R)-4-((2,2,2-trifluoroethyl)thio)butan-2-yl)-2-(trifluoromethyl)benzamide]
mortality at 50 µg/cm2 [1]: 50 to 100% | YFM % Control (or Mortality) rating [2]: A (80-100) | mortality at 50 µg/cm2 [3]: 50 to 100%

C[C@H](CSCC(F)(F)F)NC(=O)c1ccc(/C=C/C(c2cc(Cl)c(F)c(Cl)c2)C(F)(F)F)cc1Br (stereo partly drawn) [F34, 2-Bromo-4-((E)-3-(3,5-dichloro-4-fluorophenyl)-4,4,4-trifluorobut-1-en-1-yl)-N—((R)-1-((2,2,2-trifluoroethyl)thio)propan-2-yl)benzamide]
mortality at 50 µg/cm2 [1]: 50 to 100% | YFM % Control (or Mortality) rating [2]: A (80-100) | mortality at 50 µg/cm2 [3]: 50 to 100%

C[C@H](CS(=O)(=O)CC(F)(F)F)NC(=O)c1ccc(/C=C/C(c2cc(Cl)c(F)c(Cl)c2)C(F)(F)F)cc1Br (stereo partly drawn) [F52, 2-Bromo-4-((E)-3-(3,5-dichloro-4-fluorophenyl)-4,4,4-trifluorobut-1-en-1-yl)-N—((R)-1-((2,2,2-trifluoroethyl)sulfonyl)propan-2-yl)benzamide]
mortality at 50 µg/cm2 [1]: 50 to 100% | YFM % Control (or Mortality) rating [2]: A (80-100) | mortality at 50 µg/cm2 [3]: 50 to 100%

O=C(NCC[S+]([O-])CC(F)(F)F)c1ccc(/C=C/C(c2cc(Cl)c(Cl)c(Cl)c2)C(F)(F)F)cc1Br (stereo not drawn) [F3, (E)-2-bromo-4-(4,4,4-trifluoro-3-(3,4,5-trichlorophenyl)but-1-en-1-yl)-N-(2-((2,2,2-trifluoroethyl)sulfinyl)ethyl)benzamide]
mortality at 50 µg/cm2 [1]: 50 to 100% | YFM % Control (or Mortality) rating [2]: B (More than 0-Less than 80) | mortality at 50 µg/cm2 [3]: 50 to 100%

C[C@H](CS(=O)(=O)CC(F)(F)F)NC(=O)c1ccc(/C=C/C(c2cc(Cl)cc(Cl)c2)C(C)(F)F)cc1C(F)(F)F (stereo partly drawn) [F134, 4-((E)-3-(3,5-Dichlorophenyl)-4,4-difluoropent-1-en-1-yl)-N—((R)-1-((2,2,2-trifluoroethyl)sulfonyl)propan-2-yl)-2-(trifluoromethyl)benzamide]
mortality at 50 µg/cm2 [1]: 50 to 100% | YFM % Control (or Mortality) rating [2]: A (80-100) | mortality at 50 µg/cm2 [3]: 50 to 100%

CS(=O)(=O)CC[C@@H](NC(=O)c1ccc(/C=C/C(c2cc(Cl)c(Cl)c(Cl)c2)C(F)(F)F)cc1C(F)(F)F)C(=O)NCC(F)(F)F (stereo partly drawn) [F27, N—((R)-4-(Methylsulfonyl)-1-oxo-1-((2,2,2-trifluoroethyl)amino)butan-2-yl)-4-((E)-4,4,4-trifluoro-3-(3,4,5-trichlorophenyl)but-1-en-1-yl)-2-(trifluoromethyl)benzamide]
CL % Control (or Mortality) rating [1]: A (50-100) | YFM % Control (or Mortality) rating [2]: A (80-100) | BAW % Control (or Mortality) rating [3]: A (50-100)

O=C(NC1(C[S+]([O-])CC(F)(F)F)CC1)c1ccc(/C=C/C(c2cc(Cl)c(Cl)c(Cl)c2)C(F)(F)F)cc1C(F)(F)F (stereo not drawn) [F63, (E)-4-(4,4,4-Trifluoro-3-(3,4,5-trichlorophenyl)but-1-en-1-yl)-N-(1-(((2,2,2-trifluoroethyl)sulfinyl)methyl)cyclopropyl)-2-(trifluoromethyl)benzamide]
mortality at 50 µg/cm2 [1]: 50 to 100% | YFM % Control (or Mortality) rating [2]: A (80-100) | mortality at 50 µg/cm2 [3]: 50 to 100%

CC(C)[C@H](CSCC(F)(F)F)NC(=O)c1ccc(/C=C/C(c2cc(Cl)c(Cl)c(Cl)c2)C(F)(F)F)cc1C(F)(F)F (stereo partly drawn) [F14, N—((R)-3-Methyl-1-((2,2,2-trifluoroethyl)thio)butan-2-yl)-4-((E)-4,4,4-trifluoro-3-(3,4,5-trichlorophenyl)but-1-en-1-yl)-2-(trifluoromethyl)benzamide]
mortality at 50 µg/cm2 [1]: 50 to 100% | YFM % Control (or Mortality) rating [2]: A (80-100) | mortality at 50 µg/cm2 [3]: 50 to 100%
